In the METLIN SMRT retention time set (Domingo-Almenara et al. 2019):

Assay: gradient 5% acetonitrile 3 min, to 50% in 2 min, to 85% in 15 min, held 3 min, 100 µL/min
Details: column: Zorbax Extend-C18 2.1 x 50 mm; eluents: water / acetonitrile, 0.1% formic acid
Outline: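 Data were gathered over 3 months by HPLC coupled to a quadrupole time-of-flight mass spectrometer, operated in positive and negative ionization mode. Mixtures of ~100 pure standards ran on a Zorbax Extend-C18 column (2.1 × 50 mm, 1.8 μm) at 100 μL/min, with water and acetonitrile each containing 0.1% formic acid and dead and dwell volumes of 40 μL and 900 μL. Retention time was read from adduct peaks picked by computer and checked manually.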

| RP-LC retention time [s] | Structure (SMILES) |
| --- | --- |
| 1230 | CCOc1ccc(-c2noc(Cn3nc(-c4ccc(C)c(C)c4)ccc3=O)n2)cc1 |
| 990 | COc1cccc(CNC(=O)C2(C)CCCN(C(=O)Nc3cc(Cl)ccc3OC)C2)c1 (configuration not stated) |
| 582 | CC(C)N1C(=O)c2cccnc2Sc2cc(C(=O)N3CCN(C)CC3)ccc21 |
| 683 | O=C(Nc1cnc(N2CCN(CCOc3ccc(Cl)cc3)CC2)c(C(=O)O)c1)c1cccs1 |
| 867 | CCOC(=O)c1[nH]c(C)c(CCC(=O)N2CCC(C(=O)NCc3ccc(CC)cc3)CC2)c1C |
| 704 | CN(C)c1ccc(-c2nc3ncc(Cl)c(N4CCN(CC(=O)Nc5nccs5)CC4)c3[nH]2)cc1 |
| 555 | Cc1cc2n(n1)CCCN2C(=O)CCC(=O)N1CCN(c2ccccn2)CC1 |
| 947 | Cc1ccc(CNC(=O)C2(C)CCCN(C(=O)Nc3ccc(C)cc3C)C2)cc1 (configuration not stated) |
| 1290 | COC(=O)c1ccc(COc2cc(O)c3c(=O)cc(-c4ccccc4)oc3c2)cc1 |
| 772 | CCOC(=O)c1c(S(=O)(=O)N2CCC(C(=O)NCc3cccc(OC)c3)CC2)c(C)n(C)c1C |
| 703 | COc1ccc(CCN2C(=O)CC(Sc3ccccc3C(=O)O)C2=O)cc1OC (configuration not stated) |
| 877 | CN(C)S(=O)(=O)c1ccc2c(c1)N(CC(=O)Nc1ccc3c(c1)OCO3)C(=O)C1CCCCN21 (configuration not stated) |
| 592 | O=C(Nc1cccc(Nc2ncc(Br)c(NCCc3cnc[nH]3)n2)c1)N1CCCC1 |
| 637 | Cc1cc(C)n(-c2ccc(C(=O)NCCCN3CCCC3=O)nn2)n1 |
| 770 | Cc1nn(C)c(C)c1CCCN(C)C(=O)c1cc2c(s1)N(C)CCCC2 |
| 871 | COc1ccc(Cc2nc3nccc(-c4ccc(F)cc4OC)n3n2)cc1 |
| 985 | CCc1ccccc1NC(=O)C1CCN(S(=O)(=O)c2c(C)nn(-c3ccccc3)c2C)CC1 |
| 1030 | Cc1ccc(S(=O)(=O)N2CCCC(c3nnc(CC(C)(C)C)o3)C2)cc1C (configuration not stated) |
| 671 | O=C(NC1CCCN(c2cc(N3CCCC3)ncn2)C1)c1ccoc1 (configuration not stated) |
| 785 | COCc1cc2nn(CC(=O)NC3CCCCC3)c(=O)n2c(-c2ccccc2)n1 |
| 799 | Cc1nnc(-c2cn(CC(=O)Nc3ccccc3F)c3ccccc23)o1 |
| 788 | CCn1cc(C(=O)N2CCCc3ccccc32)c2nn(-c3ccccc3)c(=O)c-2c1 |

| RP-LC retention time [s] | Structure (SMILES) |
| --- | --- |
| 612 | CCn1c(=O)c(SCC(=O)N2CCN(c3ccccn3)CC2)nc2ccccc21 |
| 933 | O=C1CC(c2nc(-c3ccccc3)no2)CN1c1ccc2c(c1)OCCO2 (configuration not stated) |
| 998 | Cc1ccc(CNC(=O)C2CCN(S(=O)(=O)c3cc(-c4noc(C5CC5)n4)cs3)CC2)cc1 |
| 569 | Cc1cccc(C(=O)N2CCc3nc[nH]c3C2)c1 |
| 755 | O=C(CCc1nc2ccccc2s1)N1CCC(c2noc(-c3ccccn3)n2)C1 (configuration not stated) |
| 645 | Cc1ccn2cc(C(=O)NCc3ccc(F)cc3)nc2c1 |
| 1030 | CC1CCN(c2nn(CC(=O)NCc3cccs3)c(=O)c3ccccc23)CC1 |
| 616 | COc1ccc(NC(=O)Nc2ccc(-c3cn4cccnc4n3)cc2)cc1 |
| 670 | O=S(=O)(CCOc1ccc(F)cc1)Nc1ncccn1 |
| 636 | O=C(COc1ccccc1)N1CCN(c2nc(CN3CCCCC3)cs2)CC1 |
| 882 | CCn1c(=O)c(N2CCC(NC(=O)NCCc3ccccc3)CC2)nc2ccccc21 |
| 649 | COC(=O)c1sc2cccc(F)c2c1S(=O)(=O)N1CCC(C(N)=O)(N2CCCCC2)CC1 |
| 628 | Cn1cnc(S(=O)(=O)N2CCC(c3noc(-c4ccncc4)n3)C2)c1 (configuration not stated) |
| 781 | O=C(NCC1CCN(C(=O)c2ccccc2F)CC1)c1ccc(Cl)s1 |
| 596 | CCN(Cc1ccccc1)C(=O)Cn1c(N)nc(C)cc1=O |
| 878 | CC(C)c1cccc(N2C=C(C(=O)N3CCOCC3)S(=O)(=O)c3ccccc32)c1 |
| 693 | Cc1cccc(NC(=O)N2CCN(CC(=O)c3c(C)n(C)c4ccccc34)CC2)c1 |
| 548 | O=C(NCCCN1CCCC1)c1ccc(CS(=O)Cc2ccccc2Cl)o1 (configuration not stated) |
| 636 | O=C(NCCCN1CCCC1=O)c1nc(Nc2ccc(F)cc2)c2ccccc2n1 |
| 1040 | CC(=O)OCC1OC(N2CCC(=O)NC2=O)C(OC(C)=O)C1OC(C)=O (configuration not stated) |
| 605 | CC(=O)Nc1c(C)nn(-c2ccccc2)c1N1CCC(C(=O)NCCCN2CCCC2=O)CC1 |
| 632 | O=C(CS(=O)Cc1ccco1)NC/C=C\COc1cc(CN2CCCCC2)ccn1 (configuration not stated) |

| RP-LC retention time [s] | Structure (SMILES) |
| --- | --- |
| 1020 | CN(C(=O)C1=Cc2ccccc2OC=C1)c1ccccc1 |
| 751 | O=C(O)CCC1CCN(S(=O)(=O)c2ccccc2F)CC1 |
| 724 | CCn1cnc(S(=O)(=O)N2CCC(C(=O)Nc3cccc(-c4ccno4)c3)CC2)c1 |
| 1030 | CCn1c(C)c(C(=O)C(C)N(Cc2ccc(F)cc2)C(=O)C2CC2)c(C)c1C(=O)OC (configuration not stated) |
| 823 | Cc1ccc(CNC(=O)C2(C)Cn3nc(C(=O)NCc4ccccc4C)cc3C(=O)N2C)cc1 (configuration not stated) |
| 960 | CC(=O)Nc1nc(-c2ccc(S(=O)(=O)N3CCN(c4ccccc4)CC3)cc2)cs1 |
| 1000 | Cc1noc(C)c1S(=O)(=O)N(Cc1cccs1)Cc1cccn1C |
| 1230 | CCc1nc2cc(-c3noc(-c4cccc(F)c4)n3)ccc2o1 |
| 1040 | COc1ccc(OC)c(NC(=O)CN2C(=O)CC(c3ccc(Cl)cc3)=Nc3cccnc32)c1 |
| 605 | CO[C@H]1CN(C2CCN(S(=O)(=O)c3cccc4cccnc34)CC2)[C@H]1c1cccnc1 |
| 1060 | CSc1cccc(NC(=O)c2nnn(-c3ccccc3)c2C)c1 |
| 741 | CCCNC(=O)C1CCCN(c2ccc(SCC(=O)Nc3cccc(C(=O)OCC)c3)nn2)C1 (configuration not stated) |
| 580 | Cc1cc(N2CCOCC2)nc(Nc2ccc(NC(=O)C(C)Oc3ccccc3)cc2)n1 (configuration not stated) |
| 754 | COc1ccc(NC(=O)Cn2cnc(-c3ccc(F)cc3)cc2=O)c(OC)c1 |
| 784 | CCOC(=O)c1c(CN2CCOCC2)n(C)c2cc(-c3cccnc3)c3c(c12)CN(C)CO3 |
| 713 | CCOC(=O)C1CCN(C(=O)C2CCN(S(=O)(=O)c3ccc4c(c3)CCCC(=O)N4)CC2)CC1 |
| 656 | CCc1nccn1Cc1noc(-c2cccc(Cl)c2)n1 |
| 970 | CC1Oc2ccc(-c3csc(NC(=O)c4ccccc4)n3)cc2N(C)C1=O (configuration not stated) |
| 674 | O=C(CCc1c(-c2ccccc2)nc2ccccn12)Nc1ccc(F)cc1 |
| 788 | CCn1ncc(NC(=O)c2cccc(OC)c2)c(N2CCOCC2)c1=O |
| 571 | O=C(NCc1cccs1)C1CCCN(Cc2nc(-c3cccnc3)no2)C1 (configuration not stated) |
| 656 | O=C(N[C@H]1C[C@@H]2C[C@H]1N(C(=O)COc1cccc(Cl)c1)C2)c1cccnc1 |

| RP-LC retention time [s] | Structure (SMILES) |
| --- | --- |
| 703 | CCOc1ccc2nc(NS(=O)(=O)c3ccc4c5c(cccc35)C(=O)N4)sc2c1 |
| 869 | Cc1ccc(NC(=O)N2CCC(C(C)C(=O)Nc3ccccc3F)CC2)cc1 (configuration not stated) |
| 736 | COc1ccc(-c2nc3c(C)cccn3c2Nc2ccc(C)cc2)cc1 |
| 791 | CCc1ccc(Nc2nc(C(=O)NC3CC3)nc3ccccc23)cc1 |
| 994 | Cn1c(Nc2ccc(C(F)(F)F)cc2)nc2cc(Oc3ccnc(-c4ncc(C(F)(F)F)[nH]4)c3)ccc21 |
| 1020 | CC(C)(Oc1ccc(Cl)cc1)C(=O)N1CCN(C(=O)C2CC2c2cccs2)CC1 (configuration not stated) |
| 936 | O=C(Nc1cnc(-c2ccccc2)nc1)C1CCCC1 |
| 686 | O=C(NCc1ccc(F)c(Cl)c1)C1CCN(c2nnc3ccccn23)CC1 |
| 1030 | COc1ccccc1Cc1noc(C2CN(S(=O)(=O)c3ccc(F)c(Cl)c3)C2)n1 |
| 660 | O=C(CNC(=O)c1ccc(F)c(Cl)c1)Nc1nc2ccccc2[nH]1 |
| 543 | COc1ccc(Cl)cc1C(=O)N1CCC(c2nc3ccncc3n2C(C)C)C1 (configuration not stated) |
| 655 | CCN(CC)CCNC(=O)C1c2ccccc2Oc2ccccc21 |
| 897 | COc1ccccc1CCN1CC(=O)N(c2ccc(C)c(C)c2)[C@@H]2CS(=O)(=O)C[C@@H]21 |
| 738 | Cc1cccc(-c2ncccc2CNS(=O)(=O)c2cc(F)ccc2F)c1 |
| 686 | CCc1cccc(C)c1Nc1c(-c2ccc(O)c(OC)c2)nc2ncccn12 |
| 807 | O=C(Cc1nnc(-c2ccc3ncccc3c2)o1)NC1CCCCCC1 |
| 843 | COc1cccc(NC(=O)N2CCCC2c2nc(-c3ccccc3OC)no2)c1 (configuration not stated) |
| 821 | Cc1c(CC(=O)N2CCC(C(N)=O)CC2)c(=O)oc2c(C)c3occ(C(C)(C)C)c3cc12 |
| 905 | CCn1ccc2cc(S(=O)(=O)N3CCC(C(=O)NC(C)Cc4ccco4)CC3)ccc21 (configuration not stated) |
| 818 | O=C(Cn1c(=O)c2cccn2c2ccc(F)cc21)NCc1ccc(F)cc1 |
| 619 | CCN(CC)CCCNS(=O)(=O)c1cc(-c2cc(C)no2)cs1 |
